Test results published in ChEMBL document CHEMBL1201862, “PubChem BioAssay data set” (2004).
The source made the active and inactive calls.

Legend:
[1] = molecular target: T1, Neuropeptide Y receptor type 1 (Homo sapiens, UniProt P25929); type: functional;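 further: HEK293 cells with a CNG channel challenged with NPY then isoproterenol; potency as antagonist that reverses NPY suppression of cAMP signal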
T1 sequence (P25929 whole entry): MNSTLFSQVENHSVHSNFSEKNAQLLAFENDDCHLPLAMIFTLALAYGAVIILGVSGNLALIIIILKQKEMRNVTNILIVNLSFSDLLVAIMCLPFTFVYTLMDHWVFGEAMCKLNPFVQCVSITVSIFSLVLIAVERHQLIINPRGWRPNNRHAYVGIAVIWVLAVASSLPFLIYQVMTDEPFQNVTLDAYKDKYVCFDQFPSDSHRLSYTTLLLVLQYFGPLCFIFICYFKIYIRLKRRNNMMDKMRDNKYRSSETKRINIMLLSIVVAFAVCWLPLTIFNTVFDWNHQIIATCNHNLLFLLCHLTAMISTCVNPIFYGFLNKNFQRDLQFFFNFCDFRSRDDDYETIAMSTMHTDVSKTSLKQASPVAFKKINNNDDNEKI

[2] = molecular target: T2, Neuropeptide Y receptor type 2 (Homo sapiens, UniProt P49146); type: functional, cell-based;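 further: HEK293 cells expressing the receptor and a CNG channel; stimulus was NPY near EC95 followed by isoproterenol to raise cAMP; antagonist potency measured as restoring cAMP signal that NPY suppresses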
T2 sequence (P49146 whole entry): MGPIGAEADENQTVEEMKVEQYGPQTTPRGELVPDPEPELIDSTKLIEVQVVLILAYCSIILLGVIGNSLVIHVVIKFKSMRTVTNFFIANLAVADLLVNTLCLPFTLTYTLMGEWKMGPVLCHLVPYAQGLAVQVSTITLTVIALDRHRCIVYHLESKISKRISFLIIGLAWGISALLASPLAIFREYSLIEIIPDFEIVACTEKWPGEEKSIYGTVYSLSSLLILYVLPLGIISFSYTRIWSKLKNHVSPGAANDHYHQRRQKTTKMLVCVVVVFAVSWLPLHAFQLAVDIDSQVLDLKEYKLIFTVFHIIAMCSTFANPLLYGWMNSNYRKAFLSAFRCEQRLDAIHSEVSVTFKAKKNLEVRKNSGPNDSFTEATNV

[3] = Luminescence-based dose response cell-based high throughput screening assay for cytotoxic compounds using the IEC-6 intestinal epithelial cell line. [Related pubchem assays: 1858 (Summary AID.), 1825 (Counterscreen.), 1907 (Confirmation screen.)]; type: functional
[4] = HEK-293T viability loss after treatment – luminescence, T-cell screen hits, cytotoxicity control for TCR NF-kB inhibitor project, dose response (AID 489026); type: functional, cell-based;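 further: cells exposed to compound about 14 hours before the viability readout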
[5] = CCR5-tropic HIV-1 fusion blockers – cell-based, CCR5-tropic Env, dose response (AID 2279); type: functional
[6] = NIH-3T3 fibroblast cytotoxicity, dose response, cytotoxicity control, cell-based, fluorescence, Alamar Blue, secondary assay (AID 2327); type: functional;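 further: NIH-3T3 mouse fibroblasts cultured with fluconazole at 8 µg/mL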
[7] = cells; type: functional, cell-based
[8] = fluconazole-exposed Candida albicans growth modulators – fluorescence, retest, confirmation (AID 2467); type: functional, cell-based
[9] = Trypanosoma cruzi growth suppression in host cells – NIH3T3 host cells, beta-gal luminescence, confirmation (AID 2044); type: functional, cell-based;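 further: intracellular parasites grown in NIH/3T3 mouse fibroblasts as host cells; luminescent beta-galactosidase reporter signal from transgenic T. cruzi replicating inside host cells; inhibitors lower the luminescence signal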
[10] = cells; type: functional, cell-based; remark: listed apart in the source
[11] = NIH3T3 cell viability loss – ATP luminescence, mouse fibroblasts, counter-screen, dose response (AID 2010); type: functional, cell-based;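 further: cells exposed to compound for about 90 hours before reading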
[12] = molecular target: Nonstructural protein 1 (Influenza A virus, UniProt Q194T2); type: functional, Influenza A virus (A/California/07/2009(H1N1))
[13] = tested on: INS1; test: INS-1E survival protection against cytokine death – cell-based, luminescence, retest, dose response (AID 449756); type: functional; conditions: Rattus norvegicus;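 further: cell death triggered by IL-1 beta plus TNF-alpha plus IFN-gamma mixture; protective hits raise ATP signal compared with cytokine alone wells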
[14] = reduction of Shn3 3'UTR-driven luciferase in osteoblasts – cell-based, Clone20 osteoblasts, firefly luciferase, cherry-picked, dose response (AID 624132); type: functional;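 further: firefly luciferase luminescence from reporter carrying the Shn3 3'UTR in osteoblasts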
[15] = loss of viability in HepG2 cells – cell-based, CellTiter-Glo, cherry-picked, cytotoxicity control for Shn3 inhibitor project, dose response (AID 624134); type: functional
[16] = non-specific 3'UTR reporter inhibition in Clone20-Shn3RL – cell-based, Renilla luciferase, cherry-picked, counter-screen for Shn3 inhibitor project, dose response (AID 624133); type: functional
[17] = molecular target: Epstein-Barr nuclear antigen 1 (Epstein-Barr virus (strain B95-8) (HHV-4) (Human herpesvirus 4), UniProt P03211); test: inhibition of EBV nuclear antigen 1 DNA binding – biochemical, fluorescence polarization, 1536-well, dose response (AID 2381); design: species or system human gammaherpesvirus 4;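 further: fluorescence polarization of a Cy5 DNA probe bound by EBNA-1 protein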
[18] = molecular target: Lytic switch protein BZLF1 (Epstein-Barr virus (strain B95-8) (HHV-4) (Human herpesvirus 4), UniProt P03206); test: inhibition of BZLF1 ZTA DNA binding – biochemical, fluorescence polarization, Epstein-Barr virus, 1536-well, counter-screen for EBNA-1 inhibitor project, dose response (AID 2377); design: species or system human gammaherpesvirus 4;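 further: fluorescence polarization of Cy5-labelled ZRE DNA probe bound by purified Zta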
[19] = Luminescence Cell-Based Dose Response HTS to Identify Activators of Luciferase Translation or Activity in H4 […] Cells. [Related pubchem assays: 1829 (Project Summary), 1814 (Primary HTS)]; type: functional
[20] = tested on: Streptococcus sp. 'group A'; test: Streptococcus pyogenes SK(-)GAS viability under kanamycin – luminescence, BacTiterGlo, confirmation, counter-screen for streptokinase expression inhibitor project, dose response (AID 1900); type: functional, organism-based
[21] = molecular target: T2, Neuropeptide Y receptor type 2; test: IC50 for human NPY-Y2 blockade – cell-based, counter-screen for NPY-Y1 antagonist project, dose response (AID 1278); type: functional
[22] = tested on: H4; test: Luminescence Cell-Based Dose Response HTS to Identify Activators of 5'UTR Stem-Loop Driven Prion Protein mRNA Translation in H4 Neuroglioblastoma Cells. [Related pubchem assays: 1829 (Project Summary), 1814 (Primary HTS)]; type: functional; conditions: Homo sapiens
[23] = molecular target: T3, Streptokinase A (Streptococcus pyogenes serotype M1, UniProt P10520); test: viability-normalized secreted streptokinase activity reduction – plasminogen activation absorbance, OD405, dose response (AID 1914); type: functional, Streptococcus pyogenes M1 GAS;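 further: secreted streptokinase activity via plasminogen activation per viability signal from cell pellet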
T3 sequence (P10520 whole entry): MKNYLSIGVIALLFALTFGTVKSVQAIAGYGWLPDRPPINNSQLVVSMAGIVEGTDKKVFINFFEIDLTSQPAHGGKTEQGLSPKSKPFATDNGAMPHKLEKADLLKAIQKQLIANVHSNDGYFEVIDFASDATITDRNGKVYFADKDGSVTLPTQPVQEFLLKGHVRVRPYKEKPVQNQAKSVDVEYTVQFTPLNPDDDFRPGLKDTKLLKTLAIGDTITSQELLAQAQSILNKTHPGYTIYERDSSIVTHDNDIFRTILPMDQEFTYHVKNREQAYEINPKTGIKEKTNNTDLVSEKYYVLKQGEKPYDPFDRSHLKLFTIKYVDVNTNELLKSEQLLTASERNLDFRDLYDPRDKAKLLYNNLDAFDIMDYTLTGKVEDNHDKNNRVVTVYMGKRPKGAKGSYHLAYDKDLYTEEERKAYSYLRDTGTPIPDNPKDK

[24] = molecular target: T1, Neuropeptide Y receptor type 1; test: IC50 of human NPY-Y1 blockers – cell-based, dose response (AID 1277); type: functional
[25] = tested on: Streptococcus; test: GAS UMAA2166 growth inhibition – luminescence, BacTiterGlo, counter-screen for streptokinase expression inhibitor project, dose response (AID 1915); type: functional, organism-based;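 further: potency for reduction of bacterial viability or growth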
[26] = molecular target: T4, Leucine aminopeptidase (Plasmodium falciparum 3D7, UniProt Q8IL11); test: P. falciparum M17LAP inhibitors, primary screen, biochemical, fluorogenic H-Leu-NHMec substrate, 1536-well (AID 1619); type: functional
T4 sequence (Q8IL11 whole entry): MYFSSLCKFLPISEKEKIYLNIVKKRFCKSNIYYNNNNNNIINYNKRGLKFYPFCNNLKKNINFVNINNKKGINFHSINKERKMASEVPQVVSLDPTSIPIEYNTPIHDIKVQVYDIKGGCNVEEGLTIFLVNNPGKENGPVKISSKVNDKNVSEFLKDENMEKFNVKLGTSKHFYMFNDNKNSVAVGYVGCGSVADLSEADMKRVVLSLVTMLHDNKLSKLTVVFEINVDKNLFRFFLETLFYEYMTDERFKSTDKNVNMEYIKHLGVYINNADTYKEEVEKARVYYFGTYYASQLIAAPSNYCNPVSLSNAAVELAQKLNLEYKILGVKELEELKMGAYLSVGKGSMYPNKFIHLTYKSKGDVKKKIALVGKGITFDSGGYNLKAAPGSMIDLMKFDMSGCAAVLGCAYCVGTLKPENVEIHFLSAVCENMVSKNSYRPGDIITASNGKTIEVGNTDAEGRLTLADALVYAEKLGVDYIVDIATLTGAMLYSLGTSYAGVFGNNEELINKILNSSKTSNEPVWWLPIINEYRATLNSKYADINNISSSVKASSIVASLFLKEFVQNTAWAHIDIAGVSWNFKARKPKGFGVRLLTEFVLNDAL

[27] = molecular target: Beta-galactosidase (Escherichia coli, UniProt Q8VNN2); test: PubChem AID 485352; type: functional
[28] = molecular target: T5, Type-1 angiotensin II receptor (Homo sapiens, UniProt P30556); test: antagonism of angiotensin II type 1 receptor – cell-based, uHTS hits, selectivity assay for APJ receptor antagonist project, dose response (AID 463214); type: functional;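 further: antagonist potency against angiotensin II stimulated AT1 response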
T5 sequence (P30556 whole entry): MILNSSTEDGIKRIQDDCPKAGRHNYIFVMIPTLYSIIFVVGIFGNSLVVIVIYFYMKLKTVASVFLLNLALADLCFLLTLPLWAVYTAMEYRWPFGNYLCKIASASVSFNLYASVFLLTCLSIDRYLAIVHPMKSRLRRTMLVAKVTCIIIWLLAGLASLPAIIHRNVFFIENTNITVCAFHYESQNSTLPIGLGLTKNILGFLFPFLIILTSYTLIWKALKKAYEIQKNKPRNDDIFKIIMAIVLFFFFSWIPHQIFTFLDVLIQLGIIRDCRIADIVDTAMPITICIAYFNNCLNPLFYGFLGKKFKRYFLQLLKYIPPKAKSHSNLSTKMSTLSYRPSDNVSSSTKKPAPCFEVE

[29] = mitochondrial function rescue without frataxin homolog – Friedreich's ataxia, plus single-dose screen, dose response (AID 1465); type: functional;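 further: yeast depleted of Yfh1p frataxin homolog grown on glycerol needing respiration; WST-1 tetrazolium dye reduction as measure of cellular dehydrogenase metabolic activity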
[30] = molecular target: T6, Voltage-gated N-type calcium channel alpha-1B subunit/Amyloid beta A4 precursor protein-binding family A member 1 (Homo sapiens, UniProt Q00975+Q02410); type: protein assay
[31] = molecular target: T6, Voltage-gated N-type calcium channel alpha-1B subunit/Amyloid beta A4 precursor protein-binding family A member 1; type: protein assay; remark: listed apart in the source
[32] = molecular target: Sphingosine 1-phosphate receptor 2 (Homo sapiens, UniProt O95136); test: Dose Response Cell Based Assay for Agonists of the S1P2 Receptor of Purchased Analogues. [Related pubchem assays: 729, 843, 854, 736 ]; type: functional
Sphingosine 1-phosphate receptor 2, sequence (O95136 whole entry): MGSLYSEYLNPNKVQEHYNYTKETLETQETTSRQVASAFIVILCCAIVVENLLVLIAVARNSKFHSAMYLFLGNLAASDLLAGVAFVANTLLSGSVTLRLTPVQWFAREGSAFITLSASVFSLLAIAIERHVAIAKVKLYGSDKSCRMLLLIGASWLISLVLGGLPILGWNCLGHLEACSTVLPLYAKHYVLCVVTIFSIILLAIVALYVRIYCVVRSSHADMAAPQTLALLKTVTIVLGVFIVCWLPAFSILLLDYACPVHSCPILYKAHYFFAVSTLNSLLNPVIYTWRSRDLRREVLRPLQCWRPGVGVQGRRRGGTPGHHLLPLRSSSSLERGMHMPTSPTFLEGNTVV

Lytic switch protein BZLF1, sequence (P03206 whole entry): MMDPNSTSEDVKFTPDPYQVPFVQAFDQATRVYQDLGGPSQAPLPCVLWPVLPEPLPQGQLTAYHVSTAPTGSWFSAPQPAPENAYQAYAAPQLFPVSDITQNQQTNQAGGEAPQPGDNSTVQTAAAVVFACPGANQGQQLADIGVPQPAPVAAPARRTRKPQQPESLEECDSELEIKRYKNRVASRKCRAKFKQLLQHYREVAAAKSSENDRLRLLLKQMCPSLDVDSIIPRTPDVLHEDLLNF
Epstein-Barr nuclear antigen 1, sequence (P03211 whole entry): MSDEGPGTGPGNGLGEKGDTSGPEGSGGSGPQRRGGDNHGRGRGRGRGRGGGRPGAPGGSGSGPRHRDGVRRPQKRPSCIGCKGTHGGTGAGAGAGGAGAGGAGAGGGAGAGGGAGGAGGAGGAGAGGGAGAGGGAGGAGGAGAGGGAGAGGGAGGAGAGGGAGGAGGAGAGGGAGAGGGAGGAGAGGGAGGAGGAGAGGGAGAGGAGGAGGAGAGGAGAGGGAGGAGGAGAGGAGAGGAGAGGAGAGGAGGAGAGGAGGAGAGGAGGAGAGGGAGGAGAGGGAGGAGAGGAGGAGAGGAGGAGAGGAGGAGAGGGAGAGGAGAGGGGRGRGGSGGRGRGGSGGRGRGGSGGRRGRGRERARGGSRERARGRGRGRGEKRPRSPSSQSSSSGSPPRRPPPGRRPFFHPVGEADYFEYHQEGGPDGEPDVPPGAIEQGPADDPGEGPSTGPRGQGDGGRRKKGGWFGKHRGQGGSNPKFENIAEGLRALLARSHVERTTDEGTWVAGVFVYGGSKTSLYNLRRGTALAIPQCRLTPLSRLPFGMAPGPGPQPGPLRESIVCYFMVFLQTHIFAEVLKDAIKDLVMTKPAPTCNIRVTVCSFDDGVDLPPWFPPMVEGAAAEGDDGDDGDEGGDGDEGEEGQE
T6 sequence (Q00975 whole entry): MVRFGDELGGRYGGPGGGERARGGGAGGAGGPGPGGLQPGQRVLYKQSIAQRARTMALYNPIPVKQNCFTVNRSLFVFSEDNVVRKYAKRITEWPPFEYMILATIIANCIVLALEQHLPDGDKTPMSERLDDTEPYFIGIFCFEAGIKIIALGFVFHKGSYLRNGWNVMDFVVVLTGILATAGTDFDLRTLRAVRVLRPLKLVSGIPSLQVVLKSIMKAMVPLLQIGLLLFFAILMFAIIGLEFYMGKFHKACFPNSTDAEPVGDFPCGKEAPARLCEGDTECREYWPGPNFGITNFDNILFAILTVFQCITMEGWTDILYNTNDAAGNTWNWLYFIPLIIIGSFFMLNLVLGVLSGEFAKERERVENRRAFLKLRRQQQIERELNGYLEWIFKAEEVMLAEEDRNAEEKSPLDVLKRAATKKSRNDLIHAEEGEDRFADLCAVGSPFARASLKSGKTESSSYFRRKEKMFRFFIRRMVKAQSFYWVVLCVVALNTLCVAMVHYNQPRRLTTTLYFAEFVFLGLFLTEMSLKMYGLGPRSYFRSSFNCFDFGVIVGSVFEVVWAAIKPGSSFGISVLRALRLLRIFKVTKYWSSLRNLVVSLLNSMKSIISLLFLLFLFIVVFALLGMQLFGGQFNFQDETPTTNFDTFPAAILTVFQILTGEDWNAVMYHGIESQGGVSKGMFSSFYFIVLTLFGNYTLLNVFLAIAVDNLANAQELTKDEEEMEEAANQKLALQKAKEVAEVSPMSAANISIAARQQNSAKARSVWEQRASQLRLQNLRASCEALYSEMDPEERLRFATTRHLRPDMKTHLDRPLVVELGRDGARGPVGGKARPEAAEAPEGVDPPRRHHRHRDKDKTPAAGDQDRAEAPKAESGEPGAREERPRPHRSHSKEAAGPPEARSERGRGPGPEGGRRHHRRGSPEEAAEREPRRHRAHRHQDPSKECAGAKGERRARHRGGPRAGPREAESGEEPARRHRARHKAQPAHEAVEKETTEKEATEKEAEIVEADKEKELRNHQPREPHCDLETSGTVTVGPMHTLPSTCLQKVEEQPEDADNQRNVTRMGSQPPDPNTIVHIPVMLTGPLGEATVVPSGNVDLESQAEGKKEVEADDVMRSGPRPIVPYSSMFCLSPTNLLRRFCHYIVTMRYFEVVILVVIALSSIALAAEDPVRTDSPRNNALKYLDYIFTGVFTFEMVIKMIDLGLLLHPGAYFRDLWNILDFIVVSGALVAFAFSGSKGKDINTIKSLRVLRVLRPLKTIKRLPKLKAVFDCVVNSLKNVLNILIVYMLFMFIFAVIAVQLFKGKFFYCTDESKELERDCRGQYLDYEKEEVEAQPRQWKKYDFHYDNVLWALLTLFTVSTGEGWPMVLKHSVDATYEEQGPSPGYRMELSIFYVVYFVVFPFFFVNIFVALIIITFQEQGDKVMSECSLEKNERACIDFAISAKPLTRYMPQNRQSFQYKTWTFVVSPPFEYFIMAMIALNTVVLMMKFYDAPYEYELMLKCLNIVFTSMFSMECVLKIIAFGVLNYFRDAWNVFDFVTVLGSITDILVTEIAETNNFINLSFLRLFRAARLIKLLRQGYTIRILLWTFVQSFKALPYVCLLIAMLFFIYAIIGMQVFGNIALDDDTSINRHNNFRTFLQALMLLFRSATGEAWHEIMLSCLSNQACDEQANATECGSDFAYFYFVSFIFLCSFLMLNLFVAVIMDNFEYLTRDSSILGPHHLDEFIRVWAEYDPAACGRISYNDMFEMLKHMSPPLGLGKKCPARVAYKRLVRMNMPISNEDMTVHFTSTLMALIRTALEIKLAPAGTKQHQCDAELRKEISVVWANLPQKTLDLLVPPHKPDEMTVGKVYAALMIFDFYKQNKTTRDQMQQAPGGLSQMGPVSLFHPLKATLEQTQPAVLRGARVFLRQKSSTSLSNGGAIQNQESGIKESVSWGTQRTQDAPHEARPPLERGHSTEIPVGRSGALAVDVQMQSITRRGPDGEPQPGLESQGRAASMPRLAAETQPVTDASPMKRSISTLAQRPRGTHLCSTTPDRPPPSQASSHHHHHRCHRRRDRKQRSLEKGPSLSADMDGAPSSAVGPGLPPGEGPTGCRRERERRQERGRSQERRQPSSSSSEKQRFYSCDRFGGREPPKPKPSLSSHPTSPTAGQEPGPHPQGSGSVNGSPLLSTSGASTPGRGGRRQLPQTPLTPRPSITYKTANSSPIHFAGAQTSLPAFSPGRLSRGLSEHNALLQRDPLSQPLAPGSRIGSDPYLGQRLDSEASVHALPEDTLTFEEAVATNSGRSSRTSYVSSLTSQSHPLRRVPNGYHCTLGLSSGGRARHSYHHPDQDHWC
T6 sequence (Q02410 whole entry): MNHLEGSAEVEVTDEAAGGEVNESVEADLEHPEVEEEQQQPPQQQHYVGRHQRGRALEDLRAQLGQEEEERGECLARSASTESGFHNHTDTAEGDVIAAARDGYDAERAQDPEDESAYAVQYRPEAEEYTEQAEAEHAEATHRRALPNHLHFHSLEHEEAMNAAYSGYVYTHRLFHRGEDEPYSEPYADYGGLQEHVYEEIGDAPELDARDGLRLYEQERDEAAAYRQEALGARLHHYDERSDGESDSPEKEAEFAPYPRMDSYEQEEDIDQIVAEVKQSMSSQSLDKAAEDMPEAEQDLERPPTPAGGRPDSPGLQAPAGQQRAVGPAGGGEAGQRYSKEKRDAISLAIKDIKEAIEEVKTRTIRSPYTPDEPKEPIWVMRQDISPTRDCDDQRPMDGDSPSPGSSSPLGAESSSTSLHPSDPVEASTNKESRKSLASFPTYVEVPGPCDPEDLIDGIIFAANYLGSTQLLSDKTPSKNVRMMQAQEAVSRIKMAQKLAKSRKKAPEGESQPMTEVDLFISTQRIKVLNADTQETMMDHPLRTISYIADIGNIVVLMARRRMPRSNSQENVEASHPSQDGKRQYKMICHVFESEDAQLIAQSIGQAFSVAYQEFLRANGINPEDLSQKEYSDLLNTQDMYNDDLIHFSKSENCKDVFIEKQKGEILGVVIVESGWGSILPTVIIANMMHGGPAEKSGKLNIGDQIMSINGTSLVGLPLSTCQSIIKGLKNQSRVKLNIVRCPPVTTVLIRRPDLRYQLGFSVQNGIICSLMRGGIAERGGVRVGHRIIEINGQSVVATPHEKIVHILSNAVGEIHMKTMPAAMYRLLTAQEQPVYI
Nonstructural protein 1, sequence (Q194T2 whole entry): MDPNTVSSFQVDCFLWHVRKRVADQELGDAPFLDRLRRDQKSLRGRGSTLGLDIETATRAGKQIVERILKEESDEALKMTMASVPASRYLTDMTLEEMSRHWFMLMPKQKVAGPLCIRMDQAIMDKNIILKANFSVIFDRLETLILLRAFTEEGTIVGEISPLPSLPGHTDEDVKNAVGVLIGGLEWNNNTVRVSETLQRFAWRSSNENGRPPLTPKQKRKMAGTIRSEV

Cc1ccccc1/C=C/c1nc2ccccc2c(=O)n1CCc1ccccc1
IC50 [1]: 4.26 µM (active)
IC50 [2]: 5.52 µM (active)

CC(=O)O[C@H]1C(=O)[C@@]2(C)C([C@H](OC(=O)c3ccccc3)[C@]3(O)C[C@H](OC(=O)[C@H](O)[C@@H](NC(=O)Cc4ccccc4)c4ccccc4)C(C)=C1C3(C)C)[C@]1(OC(C)=O)CO[C@@H]1C[C@@H]2O (stereo partly drawn)
IC50 [3]: 0.396 µM (active)
IC50 [4]: > 80 µM (inactive)

COc1cc([N+](=O)[O-])cc(/C=C2/SC(=S)N(Cc3ccccc3)C2=O)c1O
IC50 [5]: 8.82 µM (active)

COc1cccc(C(NC(C)=O)c2ccc3cccnc3c2O)c1 (stereo not drawn)
EC50 [6]: 3.88 µM (inconclusive)
EC50 [7]: 7.47 µM (active)
EC50 [8]: 1.38 µM (active)
EC50 [9]: 1.07 µM (active)
IC50 [3]: 1.48 µM (active)
EC50 [10]: > 350 µM (not active)
EC50 [11]: 1.07 µM (active)
IC50 [12]: 14.3 µM (active)
AC50 [13]: 0.886 µM (active)
AC50 [14]: 1.39 µM (active)
AC50 [15]: 2.61 µM (active)
AC50 [16]: 1.04 µM (active)

CNS(=O)(=O)c1cccc(C(=O)OCC(=O)Nc2ccc(-c3nc4ccc(C)cc4s3)cc2)c1
IC50 [17]: 5.63 µM (active)
IC50 [18]: > 111 µM (not active)

OC1(c2ccccc2)CCN(Cc2ccccc2)C2CCCCC21 (stereo not drawn)
IC50 [1]: 10.2 µM (not active)
IC50 [2]: 4.38 µM (active)

Clc1ccc(-c2csc(Nc3ccccc3)[n+]2Cc2ccco2)c(Cl)c1
EC50 [19]: > 120 µM (not active)
EC50 [20]: 12.3 µM (active)
IC50 [21]: > 35 µM (not active)
EC50 [22]: 51.2 µM (active)
EC50 [23]: 2.27 µM (active)
IC50 [24]: > 35 µM (not active)
EC50 [25]: > 150 µM (not active)

Cc1ccc(N/N=C2/C(=O)Nn3c2nc(C)cc3=O)cc1
IC50 [26]: 86.1 µM (active)
EC50 [27]: > 40 µM (inactive)
IC50 [28]: > 40 µM (not active)
EC50 [29]: > 100 µM (active)

O=C(Nc1nc2cc3c(cc2s1)OCCO3)c1ccc(N2C(=O)CCC2=O)cc1
IC50 [30]: 23 µM (active)
IC50 [17]: 15.6 µM (not active)
IC50 [31]: > 50 µM (inactive)
IC50 [18]: 15.1 µM (not active)

Cc1cc(C(=O)CN2C(=O)C(=O)N(Cc3ccco3)C2=O)c(C)n1Cc1ccccc1
EC50 [32]: > 30 µM (not active)

Cc1cc(C(=O)CN2C(=O)C(=O)N(Cc3ccccc3)C2=O)c(C)n1Cc1ccco1
EC50 [32]: > 30 µM (not active)
